Measurements taken from ChEMBL document CHEMBL1126294, “Benz[f]isoquinoline analogues as high-affinity sigma ligands” (J Med Chem, 1992).

Biological target: D(2) dopamine receptor (Rattus norvegicus, UniProt P61169)
Assay: Inhibition of [3H](-)-sulpiride binding to rat striatum dopamine receptor D2
Assay type: tissue-based

Chain of D(2) dopamine receptor (P61169 whole entry): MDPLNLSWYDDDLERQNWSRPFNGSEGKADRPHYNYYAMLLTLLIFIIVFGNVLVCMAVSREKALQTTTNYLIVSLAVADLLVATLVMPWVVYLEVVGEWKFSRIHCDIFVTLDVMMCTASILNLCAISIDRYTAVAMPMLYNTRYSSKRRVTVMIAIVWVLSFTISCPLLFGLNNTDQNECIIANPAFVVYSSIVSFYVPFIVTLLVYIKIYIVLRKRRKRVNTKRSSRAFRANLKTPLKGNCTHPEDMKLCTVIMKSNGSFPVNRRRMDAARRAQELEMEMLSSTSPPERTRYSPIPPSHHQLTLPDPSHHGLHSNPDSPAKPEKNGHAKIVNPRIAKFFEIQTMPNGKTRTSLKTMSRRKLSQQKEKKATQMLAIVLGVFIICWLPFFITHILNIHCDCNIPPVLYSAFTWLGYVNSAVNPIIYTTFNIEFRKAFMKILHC

SMILES	IC50
CCCCN1CC[C@@H]2c3ccccc3CC[C@H]2C1	389 nM
c1ccc(CCN2CC[C@H]3c4ccccc4CC[C@H]3C2)cc1	162 nM
COc1ccc(CN2CC[C@H]3c4ccccc4CC[C@H]3C2)cc1	35.5 nM
CCCCN1CCC2=C(CCc3ccccc32)C1	63.1 nM
CC(C)(C)c1ccc(CN2CC[C@H]3c4ccccc4CC[C@H]3C2)cc1	288 nM
CCCCN1CC[C@H]2c3ccccc3CC[C@H]2C1	145 nM
CCCCN1CCC2=C(CCCc3ccccc32)C1	61.7 nM
O=[N+]([O-])c1ccc(CCN2CC[C@H]3c4ccccc4CC[C@H]3C2)cc1	589 nM
CCCCN1CCC2=C(Cc3ccccc32)C1	60.3 nM
c1ccc2c(c1)CC[C@H]1CN(C3CCCCC3)CC[C@@H]21	2690 nM
c1ccc2c(c1)CC[C@H]1CN(C34C[C@H]5C[C@@H](C3)C[C@@H](C4)C5)CC[C@@H]21	> 10000 nM
CCCCN1CCC2c3ccccc3CCCC2C1 (configuration not stated)	166 nM
